Here are results for three compounds from ChEMBL document CHEMBL1201862, “PubChem BioAssay data set” (2004).

Test [1] is described as follows: cells. The test is classed as functional, cell-based.
The next test deals with T1, Streptokinase A (Streptococcus pyogenes serotype M1, UniProt P10520).
T1 sequence (P10520 whole entry): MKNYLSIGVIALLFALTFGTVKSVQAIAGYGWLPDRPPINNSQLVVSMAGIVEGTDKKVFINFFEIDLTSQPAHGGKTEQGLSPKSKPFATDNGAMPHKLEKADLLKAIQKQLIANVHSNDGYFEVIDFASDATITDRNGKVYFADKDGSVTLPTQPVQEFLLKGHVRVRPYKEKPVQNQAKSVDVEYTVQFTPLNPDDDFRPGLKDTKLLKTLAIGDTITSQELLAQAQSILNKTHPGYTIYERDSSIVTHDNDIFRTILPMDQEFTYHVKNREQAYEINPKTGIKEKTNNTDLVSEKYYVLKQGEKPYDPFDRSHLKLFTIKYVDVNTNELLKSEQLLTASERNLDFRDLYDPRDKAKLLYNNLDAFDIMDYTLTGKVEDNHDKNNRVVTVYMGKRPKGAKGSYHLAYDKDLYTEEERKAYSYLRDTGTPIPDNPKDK
The test can be described thus: S. pyogenes streptokinase expression inhibitors, potency, dose response, plasminogen activation absorbance, OD405 (AID 1914).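 Further: secreted streptokinase activity via plasminogen activation per viability signal from cell pellet.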 The test is classed as functional, Streptococcus pyogenes M1 GAS.

Test [2] in a line: cells. The test is classed as functional, cell-based. The source holds these as a separate data set.
A further test concerns Streptococcus. Kind of test: Group A Streptococcus viability loss, dose response, counter-screen for streptokinase expression inhibitor project, luminescence, BacTiterGlo (AID 1915).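 Further: potency for reduction of bacterial viability or growth.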 The test is classed as functional, organism-based. On the technique in general: The purpose of a counterscreen is to sort out artefacts and off-target activity.
The test system of another test is INS1. The test can be described thus: beta cell apoptosis inhibitors, cytokine rescue, dose response, luminescence, retest (AID 449756).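 Further: cell death triggered by IL-1 beta plus TNF-alpha plus IFN-gamma mixture; protective hits raise ATP signal compared with cytokine alone wells.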 The settings on record: Rattus norvegicus. It is filed as functional, cell-based.
Test [3] deals with T2, Apoptotic protease-activating factor 1 (Homo sapiens, UniProt O14727).
T2 sequence (O14727 whole entry): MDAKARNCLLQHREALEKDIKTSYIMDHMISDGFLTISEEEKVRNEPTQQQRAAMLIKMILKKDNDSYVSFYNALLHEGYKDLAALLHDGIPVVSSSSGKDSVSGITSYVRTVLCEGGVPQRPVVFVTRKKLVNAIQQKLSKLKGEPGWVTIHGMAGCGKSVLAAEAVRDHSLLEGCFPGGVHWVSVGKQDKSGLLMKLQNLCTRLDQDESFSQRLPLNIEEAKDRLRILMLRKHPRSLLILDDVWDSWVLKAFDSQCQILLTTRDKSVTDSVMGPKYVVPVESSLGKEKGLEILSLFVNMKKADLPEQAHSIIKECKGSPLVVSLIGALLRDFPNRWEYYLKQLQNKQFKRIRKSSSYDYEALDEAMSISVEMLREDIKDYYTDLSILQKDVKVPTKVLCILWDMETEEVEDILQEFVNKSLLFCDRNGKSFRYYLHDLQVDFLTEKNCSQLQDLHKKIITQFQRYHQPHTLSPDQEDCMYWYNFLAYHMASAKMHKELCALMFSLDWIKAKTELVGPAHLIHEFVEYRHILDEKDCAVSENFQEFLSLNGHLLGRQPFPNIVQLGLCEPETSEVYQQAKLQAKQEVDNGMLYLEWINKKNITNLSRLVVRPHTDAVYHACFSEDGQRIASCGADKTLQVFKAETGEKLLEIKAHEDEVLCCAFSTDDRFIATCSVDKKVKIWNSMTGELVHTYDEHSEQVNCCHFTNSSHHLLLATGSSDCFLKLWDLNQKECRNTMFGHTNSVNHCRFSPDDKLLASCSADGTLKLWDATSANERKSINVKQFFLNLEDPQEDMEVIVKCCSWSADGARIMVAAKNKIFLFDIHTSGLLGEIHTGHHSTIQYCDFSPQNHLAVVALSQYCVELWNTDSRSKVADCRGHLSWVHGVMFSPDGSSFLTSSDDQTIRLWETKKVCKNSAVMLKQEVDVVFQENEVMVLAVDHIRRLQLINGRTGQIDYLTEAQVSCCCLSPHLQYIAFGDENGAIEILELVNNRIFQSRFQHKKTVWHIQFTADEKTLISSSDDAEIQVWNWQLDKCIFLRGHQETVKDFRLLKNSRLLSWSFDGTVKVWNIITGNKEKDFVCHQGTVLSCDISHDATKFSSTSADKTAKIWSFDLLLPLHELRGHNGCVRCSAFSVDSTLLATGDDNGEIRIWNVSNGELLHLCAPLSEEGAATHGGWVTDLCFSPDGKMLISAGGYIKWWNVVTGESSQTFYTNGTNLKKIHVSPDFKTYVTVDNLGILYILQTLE
The test is classed as functional.

The target in test [4] is T3, Sentrin-specific protease 8 (Homo sapiens, UniProt Q96LD8).
T3 sequence (Q96LD8 whole entry): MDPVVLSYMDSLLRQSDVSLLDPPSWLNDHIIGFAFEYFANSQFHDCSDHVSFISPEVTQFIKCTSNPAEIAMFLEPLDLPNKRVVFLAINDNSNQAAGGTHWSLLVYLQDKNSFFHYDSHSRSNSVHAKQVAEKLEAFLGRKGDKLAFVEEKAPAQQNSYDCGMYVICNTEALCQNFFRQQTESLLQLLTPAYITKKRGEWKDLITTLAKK
Kind of test: SENP8 protease inhibitors, SAR follow-up, biochemical, luminescence (AID 504501). The test is classed as functional.

A short description of test [5]: inhibitors of firefly luciferase expression or activity, dose response, H4 neuroglioma cells, luminescence (AID 1990). The test is classed as functional, cell-based.
Test [6] is described as follows: Luminescence Cell-Based Dose Response HTS to Identify Inhibitors of 5'UTR Stem-Loop Driven Prion Protein mRNA Translation in H4 Neuroglioblastoma Cells. [Related pubchem assays: 1827 (Project Summary), 1813 (Primary HTS)]. The test is classed as functional.
Test [7] is described as follows: inhibitors of intracellular T. cruzi replication, confirmation, NIH3T3 host cells, beta-gal luminescence (AID 2044).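 Further: intracellular parasites grown in NIH/3T3 mouse fibroblasts as host cells; luminescent beta-galactosidase reporter signal from transgenic T. cruzi replicating inside host cells; inhibitors lower the luminescence signal.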 It is filed as functional, cell-based.
Test [8] has as its target T4, Sphingosine 1-phosphate receptor 4 (Homo sapiens, UniProt O95977).
T4 sequence (O95977 whole entry): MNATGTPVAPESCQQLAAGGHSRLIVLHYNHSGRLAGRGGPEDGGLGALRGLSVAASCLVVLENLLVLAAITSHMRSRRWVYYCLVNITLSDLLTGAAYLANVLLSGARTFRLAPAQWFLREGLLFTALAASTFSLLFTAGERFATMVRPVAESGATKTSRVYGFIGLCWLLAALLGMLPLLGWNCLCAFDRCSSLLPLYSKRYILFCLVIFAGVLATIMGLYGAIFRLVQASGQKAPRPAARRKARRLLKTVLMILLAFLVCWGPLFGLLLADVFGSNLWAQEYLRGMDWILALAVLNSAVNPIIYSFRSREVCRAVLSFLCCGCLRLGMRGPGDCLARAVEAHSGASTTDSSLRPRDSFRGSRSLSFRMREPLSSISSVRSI
The test can be described thus: Late stage fluorescence dose response cell-based screening assay for antagonists of the Sphingosine 1-Phosphate Receptor 4 (S1P4). [Related pubchem assays: 1524 (Confirmation screen (S1P4 antagonists).), 1510 (Primary screen (S1P4 antagonists).), 1853 (Summary AID (S1P4 antagonists).), 1692 (Dose response screen (S1P4 antagonists).)]. The test is classed as functional.

The target of test [9] is Kappa-type opioid receptor (Homo sapiens, UniProt P41145). The test is classed as functional.
Test [10] concerns the target Sphingosine 1-phosphate receptor 1 (Homo sapiens, UniProt P21453). The test is classed as functional.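 Further: Tango beta-arrestin reporter U2OS cells stimulated with S1P near its EC80; inhibitor potency meaning antagonism of receptor activation by the natural agonist.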

Calls of active or inactive are those of the source. For most assays here, no stated cut-off is given here; in the data, actives have a measured EC50 and inactives only a lower limit.

Sphingosine 1-phosphate receptor 1, sequence (P21453 whole entry): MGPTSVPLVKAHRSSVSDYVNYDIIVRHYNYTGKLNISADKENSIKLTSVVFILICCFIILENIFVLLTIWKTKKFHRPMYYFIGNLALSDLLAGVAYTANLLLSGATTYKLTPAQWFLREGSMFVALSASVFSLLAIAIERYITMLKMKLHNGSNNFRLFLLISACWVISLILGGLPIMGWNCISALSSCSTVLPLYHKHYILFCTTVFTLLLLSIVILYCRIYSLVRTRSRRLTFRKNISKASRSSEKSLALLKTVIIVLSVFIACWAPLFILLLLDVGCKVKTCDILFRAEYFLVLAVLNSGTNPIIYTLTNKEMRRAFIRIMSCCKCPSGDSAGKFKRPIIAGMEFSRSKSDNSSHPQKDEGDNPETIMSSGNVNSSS
Kappa-type opioid receptor, sequence (P41145 whole entry): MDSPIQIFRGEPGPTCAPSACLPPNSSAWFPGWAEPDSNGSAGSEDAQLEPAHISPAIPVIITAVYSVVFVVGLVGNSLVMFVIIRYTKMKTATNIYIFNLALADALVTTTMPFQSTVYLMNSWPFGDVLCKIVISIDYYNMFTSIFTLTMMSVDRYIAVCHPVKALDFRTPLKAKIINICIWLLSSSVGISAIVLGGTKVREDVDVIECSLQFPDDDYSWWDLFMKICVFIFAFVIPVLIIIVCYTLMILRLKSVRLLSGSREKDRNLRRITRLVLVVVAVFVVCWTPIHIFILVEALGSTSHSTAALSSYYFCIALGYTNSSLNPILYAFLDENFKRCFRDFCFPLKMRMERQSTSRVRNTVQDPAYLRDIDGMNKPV

`Cc1ccc(C)c(S(=O)(=O)N2CCN(Cc3ccc(O)c4ncccc34)CC2)c1`: the EC50 (in general, the concentration giving half of the maximal effect) was 7.58 µM (active) in the test “cells [1]”, > 150 µM (not active) at Streptokinase A, > 350 µM (not active) in “cells [2]” and 15 µM (active) with Streptococcus. For the same compound, the concentration at half-maximal activity (AC50) (in general, the concentration at which the activity in the assay is half-maximal) in the test with INS1 was 2.48 µM (active).

On to `Oc1ccc(/C=N\Nc2cc(N3CCOCC3)nc(N3CCOCC3)n2)c(O)c1`, for which the IC50 (usually the concentration that gives 50% inhibition) in test [3] was 7.15 µM (active); in test [4], > 99 µM (inactive).

`COc1cc(NC(=O)Cn2ncc(Cl)c(Cl)c2=O)c(C)cc1[N+](=O)[O-]`: the figures for the EC50 in [5], in test [6] and in [7] were 8.09 µM (active), 9.83 µM (active) and 2.39 µM (active), respectively. Further, the IC50 was 6.74 µM (not active) in [8], 13.9 µM in test [9] and > 49.8 µM (not active) in test [10].
